# Reference: US10676504B2 (Colorado State University Research Foundation, priority 2015, dated 2020)
# pIC50: −log10 of the molar value. Read-outs that look alike come from different tables or passages of the source.
# Experiments:
# HDACs 1-3 = assay: HDAC biochemical assay of P5-P12, summary statements
# HDAC3 = target: T1, HDAC3 (Homo sapiens, UniProt O15379); assay: HDAC biochemical assay of P5-P12 (Table P1); conditions: Table P1
# T1 construct: The recombinant, full-length HDAC protein (BPS Biosciences) was incubated; purchased BPS Biosciences
# T1 sequence (O15379 whole entry): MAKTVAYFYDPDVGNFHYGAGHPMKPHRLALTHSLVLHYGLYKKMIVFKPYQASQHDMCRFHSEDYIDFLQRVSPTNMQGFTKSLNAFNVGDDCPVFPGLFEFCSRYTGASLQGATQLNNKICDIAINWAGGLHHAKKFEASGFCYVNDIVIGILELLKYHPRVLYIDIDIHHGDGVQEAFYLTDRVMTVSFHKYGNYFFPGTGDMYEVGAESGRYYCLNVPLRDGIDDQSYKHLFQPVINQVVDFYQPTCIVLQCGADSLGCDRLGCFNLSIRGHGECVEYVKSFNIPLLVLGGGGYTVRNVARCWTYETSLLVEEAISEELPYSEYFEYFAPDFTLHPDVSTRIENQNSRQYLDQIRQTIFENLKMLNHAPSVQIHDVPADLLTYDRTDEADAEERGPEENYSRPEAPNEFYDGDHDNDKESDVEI
# T1 sequence (Q9Y618 395-489 partner limits assumed): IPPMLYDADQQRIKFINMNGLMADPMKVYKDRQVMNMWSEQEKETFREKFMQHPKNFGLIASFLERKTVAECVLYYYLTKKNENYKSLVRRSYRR
# [1] = system: 797 NUT midline carcinoma cell line; assay: 797 cell viability (ATPLite); format: cell-based; conditions: Table P2; 48 hours incubation
# Method: (§1) Addition of compound was performed with a JANUS Workstation (PerkinElmer Life and Analytical Sciences) using a 384-well pinhead tool that is calibrated to deliver 100 nL drug/well. After 48 hours of incubation with compound, cells were analyzed for cell viability using the ATPLite (Perkin Elmer) luminescent assay kit per the manufacturer's instructions. […] Replicate measurements were analyzed with respect to dose and estimates of IC50 were calculated by logistic regression (GraphPad Prism).
# HDAC8 = target: T2, HDAC8 (Homo sapiens, UniProt Q9BY41); assay: HDAC biochemical assay of P5-P12 (Table P1); parameters: The recombinant, full-length HDAC protein (BPS Biosciences) was incubated; purchased BPS Biosciences; conditions: Table P1
# T2 sequence (Q9BY41 1-377): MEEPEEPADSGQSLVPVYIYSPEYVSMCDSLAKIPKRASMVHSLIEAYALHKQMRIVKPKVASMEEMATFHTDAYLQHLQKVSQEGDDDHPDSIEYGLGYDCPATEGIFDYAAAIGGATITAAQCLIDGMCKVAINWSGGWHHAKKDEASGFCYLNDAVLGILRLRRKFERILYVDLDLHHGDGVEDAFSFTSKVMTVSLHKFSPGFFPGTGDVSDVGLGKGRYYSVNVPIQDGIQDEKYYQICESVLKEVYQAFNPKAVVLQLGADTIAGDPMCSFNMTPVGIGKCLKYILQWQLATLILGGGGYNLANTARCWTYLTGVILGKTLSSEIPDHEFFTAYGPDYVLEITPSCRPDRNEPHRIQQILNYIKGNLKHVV
# [2] = system: 10326 NUT midline carcinoma cell line; assay: 10326 cell viability (ATPLite); format: cell-based; conditions: Table P2; 48 hours incubation
# Method: as §1
# HDAC6 = target: T3, HDAC6 (Homo sapiens, UniProt Q9UBN7); assay: HDAC biochemical assay of P5-P12 (Table P1); parameters: The recombinant, full-length HDAC protein (BPS Biosciences) was incubated; purchased BPS Biosciences; conditions: 200 μM TCEP
# T3 sequence (Q9UBN7 1-1215): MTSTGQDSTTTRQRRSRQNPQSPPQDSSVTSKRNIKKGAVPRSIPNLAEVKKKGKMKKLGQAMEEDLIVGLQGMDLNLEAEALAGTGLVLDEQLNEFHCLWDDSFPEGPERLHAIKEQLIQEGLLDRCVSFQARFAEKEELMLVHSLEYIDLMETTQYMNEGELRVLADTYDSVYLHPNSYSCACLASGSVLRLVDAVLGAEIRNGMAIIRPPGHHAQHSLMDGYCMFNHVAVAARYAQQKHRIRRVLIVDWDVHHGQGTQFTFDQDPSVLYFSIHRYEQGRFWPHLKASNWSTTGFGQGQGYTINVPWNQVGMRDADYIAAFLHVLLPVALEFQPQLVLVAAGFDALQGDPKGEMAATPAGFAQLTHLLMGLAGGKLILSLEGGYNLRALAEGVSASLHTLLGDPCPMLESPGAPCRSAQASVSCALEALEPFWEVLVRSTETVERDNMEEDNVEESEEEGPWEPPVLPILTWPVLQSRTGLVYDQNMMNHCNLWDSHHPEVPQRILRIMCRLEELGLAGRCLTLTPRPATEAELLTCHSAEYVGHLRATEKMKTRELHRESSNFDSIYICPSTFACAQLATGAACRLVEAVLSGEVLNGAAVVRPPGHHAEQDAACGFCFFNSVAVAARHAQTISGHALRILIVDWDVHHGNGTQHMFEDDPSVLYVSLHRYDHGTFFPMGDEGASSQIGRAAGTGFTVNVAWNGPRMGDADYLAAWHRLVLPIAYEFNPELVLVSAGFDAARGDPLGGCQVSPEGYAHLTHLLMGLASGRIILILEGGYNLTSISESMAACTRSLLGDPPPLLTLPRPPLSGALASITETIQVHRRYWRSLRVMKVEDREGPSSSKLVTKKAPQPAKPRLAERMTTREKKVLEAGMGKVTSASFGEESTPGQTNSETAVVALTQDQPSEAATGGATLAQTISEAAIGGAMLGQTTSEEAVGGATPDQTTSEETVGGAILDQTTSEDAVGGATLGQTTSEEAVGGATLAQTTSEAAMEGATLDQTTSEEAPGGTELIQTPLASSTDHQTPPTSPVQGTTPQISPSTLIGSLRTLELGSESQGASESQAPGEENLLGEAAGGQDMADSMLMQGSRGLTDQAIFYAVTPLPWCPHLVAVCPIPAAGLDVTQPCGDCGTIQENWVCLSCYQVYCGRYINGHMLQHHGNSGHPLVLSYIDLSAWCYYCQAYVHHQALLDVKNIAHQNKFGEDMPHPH
# HDAC2 = HDAC2 (Homo sapiens, UniProt Q92769); assay: HDAC biochemical assay of P5-P12 (Table P1); parameters: The recombinant, full-length HDAC protein (BPS Biosciences) was incubated; purchased BPS Biosciences; conditions: Table P1
# Sequence of HDAC2 (Q92769 whole entry): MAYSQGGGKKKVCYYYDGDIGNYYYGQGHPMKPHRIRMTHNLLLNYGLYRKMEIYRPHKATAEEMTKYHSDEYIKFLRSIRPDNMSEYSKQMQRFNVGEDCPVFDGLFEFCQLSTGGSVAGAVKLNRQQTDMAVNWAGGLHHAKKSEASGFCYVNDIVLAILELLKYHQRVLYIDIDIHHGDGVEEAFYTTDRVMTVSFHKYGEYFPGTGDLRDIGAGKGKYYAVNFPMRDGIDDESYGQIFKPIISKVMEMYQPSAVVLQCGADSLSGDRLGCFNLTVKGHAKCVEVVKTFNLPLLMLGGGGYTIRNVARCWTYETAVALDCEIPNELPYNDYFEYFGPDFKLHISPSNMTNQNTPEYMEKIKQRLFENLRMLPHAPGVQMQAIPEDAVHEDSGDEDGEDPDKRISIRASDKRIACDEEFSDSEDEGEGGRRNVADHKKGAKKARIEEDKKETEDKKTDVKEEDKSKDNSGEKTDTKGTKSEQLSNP
# HDAC1 = HDAC1 (Homo sapiens, UniProt Q13547); assay: HDAC biochemical assay of P5-P12 (Table P1); parameters: The recombinant, full-length HDAC protein (BPS Biosciences) was incubated; purchased BPS Biosciences; conditions: Table P1
# Sequence of HDAC1 (Q13547 whole entry, canonical isoform): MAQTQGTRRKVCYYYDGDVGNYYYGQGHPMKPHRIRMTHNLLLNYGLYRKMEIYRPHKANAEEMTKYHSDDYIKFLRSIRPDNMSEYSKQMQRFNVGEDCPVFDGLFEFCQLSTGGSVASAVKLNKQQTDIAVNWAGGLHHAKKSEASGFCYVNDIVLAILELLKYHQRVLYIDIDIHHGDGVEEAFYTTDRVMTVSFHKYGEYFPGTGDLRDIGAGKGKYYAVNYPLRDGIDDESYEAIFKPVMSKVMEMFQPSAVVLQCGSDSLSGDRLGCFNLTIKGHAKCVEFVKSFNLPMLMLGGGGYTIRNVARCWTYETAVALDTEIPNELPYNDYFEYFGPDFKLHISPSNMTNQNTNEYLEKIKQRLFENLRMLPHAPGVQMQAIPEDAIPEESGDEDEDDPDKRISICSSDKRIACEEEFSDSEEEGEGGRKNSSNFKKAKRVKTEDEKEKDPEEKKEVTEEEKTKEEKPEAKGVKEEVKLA
# human HDACs = assay: HDAC biochemical assay (Example 16), summary statements over isoforms; conditions: all isoforms tested
# Method: The inhibitory effect of compounds on deacetylase isoenzyme function was determined in vitro using an optimized homogenous assay performed in 384-well plate format. […] Data are analyzed on a plate-by-plate basis for the linear range of fluorescence over time. Data from the plate capture corresponding to the mid-linear range is imported into analytical software and annotated with well identity and compound concentration (Spotfire DecisionSite). Replicate experimental data from incubations with inhibitor are normalized to control, solvent-only wells and IC-50 is determined by logistic regression.
# Thus, small-molecule inhibitors were arrayed at twelve-point dose-response (3-fold increments) in 384-well library plates and transferred by robotic pin device to replicate assay plates containing assay buffer under reducing conditions (TCEP 200 μM). A liquid handling device then transferred a tripeptide substrate terminating in acetyl-lysine and amide conjugated to 4-methyl-7-aminocoumarin (AMC), recombinant human histone deacetylase (BPS Bioscience, San Diego, Calif.), and recombinant human trypsin (Sigma-Aldrich, St. Louis, Mo.). […] Kinetic (fluorescence per unit time) and end-point (total fluorescence) data were captured by a multilabel plate reader. Replicate data were analyzed by curve-fit using logistic regression (Spotfire Decision-Site). […]
# [3] = the molecule shown is the open-chain precursor, amide bond, 16-membered ring, 3 steps
# melanoma cell lines [4] = conditions: for Percent of Cell Lines Impacted (%), LC50, Melanoma: five-dose
# Source text: (§2) All compounds submitted for screening were initially tested at a single high dose (10^-5 M) against the fill NCI 60 cell panel. Only compounds which satisfied pre-determined threshold inhibition criteria in a minimum number of cell lines progressed to a second round of testing utilizing a more comprehensive 5-dose inhibition assay. The threshold inhibition criteria for progression to the 5-dose assays were selected to efficiently capture compounds with anti-proliferative activity based on historical DTP screening data.
# (§3) Concentrations for G150, IC50, TGI, and LC50 were calculated for all cell lines tested, and heat plots were prepared.
# colon cancer cell lines [5] = assay: cells; conditions: read-out: Average Concentration (M), LC50, Colon
# Source text: as §2, §3
# CNS cancer cell lines [6] = assay: cells; conditions: read-out: Average Concentration (M), LC50, CNS
# Source text: as §2, §3
# colon cancer cell lines [7] = conditions: for Percent of Cell Lines Impacted (%), LC50, Colon: five-dose
# Source text: as §2, §3
# NCI-60 cancer cell lines [8] = assay: cells
# NCI-60 cancer cell lines [9] = conditions: five-dose; for Percent of Cell Lines Impacted (%), GI50: 50% Growth Inhibition; for Percent of Cell Lines Impacted (%), LC50: 50% Lethal Concentration reached; for Percent of Cell Lines Impacted (%), TGI / Total Impacted Cell Lines (n), TGI: Total Growth Inhibition; for Average Concentration (M), TGI: average over impacted cell lines
# renal cancer cell lines = conditions: for Percent of Cell Lines Impacted (%), LC50, Renal: five-dose
# Source text: as §2, §3
# CNS cancer cell lines [10] = conditions: for Percent of Cell Lines Impacted (%), LC50, CNS: five-dose
# Source text: as §2, §3
# melanoma cell lines [11] = assay: cells; conditions: read-out: Average Concentration (M), LC50, Melanoma
# Source text: as §2, §3
# [12] = system: ovarian cancer cell lines
# Source text: as §2, §3
# [13] = read-out: Average Concentration (M), GI50
smiles,measurement,setting,value
"CC(C)[C@@H]1NC(=O)[C@]2(C)CSC(=N2)c2cccc(n2)CNC(=O)C[C@@H](/C=C/CCS)OC1=O [Compound P6, Depsipeptide Pyridyl “IN” Thiol]",IC50 range in words for HDACs 1-3,HDACs 1-3,single digit nM range
same,pIC50,HDAC3,8.51
same,pIC50,[1],6.66
same,pIC50,HDAC8,6.47
same,pIC50,[2],6.54
same,pIC50,HDAC6,7.31
"CC(C)[C@@H]1NC(=O)[C@]2(C)CSC(=N2)c2ccnc(c2)CNC(=O)C[C@@H](/C=C/CCS)OC1=O [Compound P8, Depsipeptide Pyridyl “OUT” Thiol]",IC50 range in words for HDACs 1-3,HDACs 1-3,single digit nM range
same,pIC50,HDAC3,8.64
same,pIC50,HDAC2,8.35
same,pIC50,HDAC1,8.66
same,pIC50,[1],7.05
same,pIC50,HDAC8,6.99
same,pIC50,[2],6.92
same,pIC50,HDAC6,7.45
"CC(C)[C@@H]1NC(=O)[C@]2(C)CSC(=N2)c2ccnc(c2)CNC(=O)C[C@@H](/C=C/CCS)NC1=O [Compound P12, Peptide Isostere Pyridyl “OUT” Thiol]",IC50 range in words for HDACs 1-3,HDACs 1-3,double-digit nM range
same,pIC50,HDAC3,7.84
same,pIC50,HDAC2,7.68
same,pIC50,HDAC1,7.88
same,pIC50,HDAC8,5.83
same,pIC50,HDAC6,5.55
"CC(C)[C@H]1NC(=O)[C@@]2(C)CSC(=N2)c2csc(n2)CNC(=O)C[C@H](/C=C/CCS)OC1=O [Enantiomer (2), (−)-Largazole Thiol]",decrease in potency versus the natural product,human HDACs,three orders of magnitude
CC(C)[C@@H]1NC(=O)[C@]2(C)CSC(=N2)c2csc(n2)CNC(=O)C[C@@H](/C=C/CCS)NC1=O [Largazole peptide isostere thiol],pIC50,[1],5.76
same,pIC50,HDAC8,6.59
same,pIC50,[2],4.92
COC(=O)C[C@@H](/C=C/CCSC(c1ccccc1)(c1ccccc1)c1ccccc1)NC(=O)[C@@H](NC(=O)[C@]1(C)CSC(c2cccc(CNC(=O)OC(C)(C)C)n2)=N1)C(C)C [Trityl Protected Peptide Isostere Pyridyl “IN” Macrocycle],"ring closure, isolated yield",[3],33%
COC(=O)C[C@@H](/C=C/CCSC(c1ccccc1)(c1ccccc1)c1ccccc1)NC(=O)[C@@H](NC(=O)[C@]1(C)CSC(c2ccnc(CNC(=O)OC(C)(C)C)c2)=N1)C(C)C [Trityl Protected Peptide Isostere Pyridyl “OUT” Macrocycle],"ring closure, isolated yield","[3]; HATU/HOBt/DIEA, MeCN, 0.97 mM, […]",32%
CCCCCCCC(=O)SCC/C=C/[C@@H]1CC(=O)NCc2cc(ccn2)C2=N[C@@](C)(CS2)C(=O)N[C@@H](C(C)C)C(=O)O1 [compound of formula A],"Total Impacted Cell Lines (n), LC50, Melanoma",melanoma cell lines [4],3
same,"Percent of Cell Lines Impacted (%), LC50, Melanoma",melanoma cell lines [4],38%
same,CC50,colon cancer cell lines [5],1.48e-06 M
same,CC50,CNS cancer cell lines [6],1.38e-05 M
same,"Total Impacted Cell Lines (n), LC50, Colon",colon cancer cell lines [7],3
same,"Percent of Cell Lines Impacted (%), LC50, Colon",colon cancer cell lines [7],43%
same,GI50,NCI-60 cancer cell lines [8]; [13],3.29e-08 M
same,GI50,"NCI-60 cancer cell lines [8]; read-out: GI50 concentrations (M), order of magnitude",1e-08 M
same,"Percent of Cell Lines Impacted (%), GI50",NCI-60 cancer cell lines [9],100%
same,"Percent of Cell Lines Impacted (%), LC50",NCI-60 cancer cell lines [9],16%
same,"Percent of Cell Lines Impacted (%), TGI",NCI-60 cancer cell lines [9],56%
same,"Total Impacted Cell Lines (n), TGI",NCI-60 cancer cell lines [9],32
same,"Average Concentration (M), TGI",NCI-60 cancer cell lines [9],8.49e-07 M
same,"Total Impacted Cell Lines (n), LC50, Renal",renal cancer cell lines,2
same,"Percent of Cell Lines Impacted (%), LC50, Renal",renal cancer cell lines,25%
same,"Total Impacted Cell Lines (n), LC50, CNS",CNS cancer cell lines [10],1
same,"Percent of Cell Lines Impacted (%), LC50, CNS",CNS cancer cell lines [10],20%
same,CC50,melanoma cell lines [11],2.02e-07 M
CCCCCCCC(=O)SCC/C=C/[C@@H]1CC(=O)NCc2nc(cs2)C2=N[C@@](C)(CS2)C(=O)N[C@@H](C(C)C)C(=O)N1 [compound of formula aa],"Total Impacted Cell Lines (n), LC50, Melanoma",melanoma cell lines [4],2
same,"Percent of Cell Lines Impacted (%), LC50, Melanoma",melanoma cell lines [4],25%
same,CC50,colon cancer cell lines [5],9.45e-06 M
same,"Total Impacted Cell Lines (n), LC50, Ovarian",[12],1
same,"Percent of Cell Lines Impacted (%), LC50, Ovarian",[12]; five-dose,14%
same,CC50,CNS cancer cell lines [6],7.17e-06 M
same,"Total Impacted Cell Lines (n), LC50, Colon",colon cancer cell lines [7],3
same,"Percent of Cell Lines Impacted (%), LC50, Colon",colon cancer cell lines [7],43%
same,GI50,NCI-60 cancer cell lines [8]; [13],6.56e-07 M
same,"Percent of Cell Lines Impacted (%), GI50",NCI-60 cancer cell lines [9],100%
same,"Percent of Cell Lines Impacted (%), LC50",NCI-60 cancer cell lines [9],17%
same,"Percent of Cell Lines Impacted (%), TGI",NCI-60 cancer cell lines [9],64%
same,"Total Impacted Cell Lines (n), TGI",NCI-60 cancer cell lines [9],37
same,"Average Concentration (M), TGI",NCI-60 cancer cell lines [9],1.31e-05 M
same,"Total Impacted Cell Lines (n), LC50, Renal",renal cancer cell lines,2
same,"Percent of Cell Lines Impacted (%), LC50, Renal",renal cancer cell lines,25%
same,"Total Impacted Cell Lines (n), LC50, CNS",CNS cancer cell lines [10],2
same,"Percent of Cell Lines Impacted (%), LC50, CNS",CNS cancer cell lines [10],33%
same,CC50,melanoma cell lines [11],6.52e-06 M
